In paper PMC7442650, “A machine learning-based chemoproteomic approach to identify drug targets and binding sites in complex proteomes” (Nature Communications, 2020):
“And” between values parts separate entries of the source, which are not always exact repeats. Equal entries are not always repeated. Where two headings read alike, the source gives them in different places.

Key:
[1] = molecular target: T1, Botrytis cinerea MBP-CK1 recombinant enzyme (MBP-tagged Bcin06g02870) (Botrytis cinerea, UniProt A0A384JJQ0); assay: CK1 kinase assay (LANCE Ultra TR-FRET); assay type: biochemical; conditions: for % Inhibition of CK-1: rep 1, rep2
T1 sequence (A0A384JJQ0 1-368): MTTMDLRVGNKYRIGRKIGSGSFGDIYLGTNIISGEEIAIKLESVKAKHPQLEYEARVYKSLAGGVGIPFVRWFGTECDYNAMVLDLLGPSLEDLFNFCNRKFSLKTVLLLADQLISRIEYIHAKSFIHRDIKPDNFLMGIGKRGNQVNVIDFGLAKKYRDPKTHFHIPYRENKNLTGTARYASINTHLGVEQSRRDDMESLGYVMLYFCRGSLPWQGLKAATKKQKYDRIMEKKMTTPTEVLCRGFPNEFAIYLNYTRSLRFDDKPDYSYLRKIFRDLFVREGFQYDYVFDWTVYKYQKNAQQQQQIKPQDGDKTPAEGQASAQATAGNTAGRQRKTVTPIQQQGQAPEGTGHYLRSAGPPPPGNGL
Source text: We calculated the center of mass of the #6 and #7 ranking LiP-Quant peptides to estimate the position of the BAYE-004 binding site within Bcin06g02870. Here we considered two LiP-Quant peptides for the center of mass calculation, as there were only two high scoring LiP-Quant peptides that could be used. The putative binding site of the drug maps in the ATP-binding site of Bcin06g02870, which is also a common binding site for kinase inhibitors (Fig. 4e, Supplementary Data 3). Finally, we performed a LANCE Ultra kinase assay (Perkin Elmer) to measure the phosphorylation activity on a peptide substrate of a purified MBP-tagged version of Bcin06g02870.
The LANCE Ultra time resolved fluorescence resonance energy transfer (Tr-FRET) kinase assay (Perkin Elmer, #TRF0300-C) protocol was used according to manufacturer’s instructions with adaptations made for the following conditions. […] The reaction was performed in duplicates in the dark at 30 °C for 90 min. Plates were read in a Victor2 Perkin plate reader (excitation 340 nm/emission 665 nm).

[2] = molecular target: Bcin16g04330 (predicted glycogen synthase kinase-3β homolog) (Botrytis cinerea, UniProt A0A384K7E5); assay: LiP-Quant, Botrytis cinerea lysate; conditions: read-out: extrapolated average EC50; top two ranking LiP-Quant peptides
Sequence of Bcin16g04330 (predicted glycogen synthase kinase-3β homolog) (A0A384K7E5 1-398): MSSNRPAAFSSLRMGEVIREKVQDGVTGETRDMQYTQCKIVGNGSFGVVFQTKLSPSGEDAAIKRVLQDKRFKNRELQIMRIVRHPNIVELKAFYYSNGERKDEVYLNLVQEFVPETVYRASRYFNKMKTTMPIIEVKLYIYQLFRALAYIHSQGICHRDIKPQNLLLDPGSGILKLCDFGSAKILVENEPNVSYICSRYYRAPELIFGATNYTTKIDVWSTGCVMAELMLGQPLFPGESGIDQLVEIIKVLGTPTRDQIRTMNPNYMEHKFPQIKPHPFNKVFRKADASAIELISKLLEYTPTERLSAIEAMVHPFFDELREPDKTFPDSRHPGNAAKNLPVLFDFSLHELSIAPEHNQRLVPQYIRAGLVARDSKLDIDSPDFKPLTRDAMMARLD

His-tagged Bcin06g02870 = assay: Cellular thermal shift assay (CETSA), western blot; assay type: cell-based, Botrytis cinerea; conditions: in vivo treatment, 56 °C
Description: Botrytis cinerea BO47 (CK1 His-Tagged) cell suspension was adjusted to 1 × 10^6 sp/ml GYPm and incubated for 24 h at 21 °C (110 rpm). […] Cells were harvested by filtration (100 µm) and rinsed with 15 ml of ice-cold HEPES buffer (0.1 M HEPES, 50 mM NaCl, pH 7.5). Harvested mycelium was resuspended in 3.5 ml HEPES buffer and kept on ice. 500 µl of each concentration was transferred to a 2 ml Eppendorf tube and heated to 56 °C on a thermoshaker for 3 min, an additional aliquot from each concentration was left unheated. After heating, cells were kept on ice for 3 min, snap frozen in liquid nitrogen, lyophilized overnight and then stored at −80 °C until protein extraction.
Lyophilized mycelium was lysed using a Retsch mixer mill (MM 400) with 3 mm tungsten carbide beads (30 Hz for 3 s, two cycles), then 500 µl of cold protein extraction buffer (50 mM HEPES, 50 mM NaCl, 0.4% NP-40) was added. Lysate was incubated for 10 min at 25 °C, centrifuged (10 min, 14,000g) and the supernatant was retained. The lysate was further centrifuged (20 min, 73,400g) to eliminate insoluble proteins. The supernatant was collected, and protein concentration was determined using the Qubit protein assay kit (#Q33211) and stored at −20 °C.
Target engagement was assessed by western blot. […] The membrane (target protein) and gel (loading control) were imaged using a ChemiDocXRS camera and quantified using ImageJ[43]. […]

Botrytis cinerea = assay: Cell viability (IC50) assay, inhibition of cell growth by optical density; conditions: three days, Rep 1-3
Description: Botrytis cinerea BO5.10 (2 × 10^3 cells/ml) mycelium in GYPm liquid media (200 µl) was cultured at 21 °C without shaking in a micro-titer plate. […] The culture was grown for three days at 21 °C after inoculation at which point the optical density was measured again. Inhibition of cell growth was calculated at each concentration.

[3] = molecular target: Bcin06g02870 (predicted casein kinase I homolog) (Botrytis cinerea, UniProt A0A384JJQ0); assay: LiP-Quant, Botrytis cinerea lysate; assay type: binding
Source text: Given its abilities to identify and characterize drug targets and their binding sites, we applied LiP-Quant to a research fungicide compound with an unknown target (BAYE-004, Fig. 4a).

[4] = molecular target: CAMK2G (KCC2G_HUMAN, Calcium/calmodulin-dependent protein kinase type II subunit gamma) (Homo sapiens, UniProt Q13555); assay: LiP-Quant, HeLa lysate; assay type: binding; conditions: staurosporine sheet; peptide NLINQMLTINPAK; LIPRank 5
Sequence of CAMK2G (KCC2G_HUMAN, Calcium/calmodulin-dependent protein kinase type II subunit gamma) (Q13555 whole entry): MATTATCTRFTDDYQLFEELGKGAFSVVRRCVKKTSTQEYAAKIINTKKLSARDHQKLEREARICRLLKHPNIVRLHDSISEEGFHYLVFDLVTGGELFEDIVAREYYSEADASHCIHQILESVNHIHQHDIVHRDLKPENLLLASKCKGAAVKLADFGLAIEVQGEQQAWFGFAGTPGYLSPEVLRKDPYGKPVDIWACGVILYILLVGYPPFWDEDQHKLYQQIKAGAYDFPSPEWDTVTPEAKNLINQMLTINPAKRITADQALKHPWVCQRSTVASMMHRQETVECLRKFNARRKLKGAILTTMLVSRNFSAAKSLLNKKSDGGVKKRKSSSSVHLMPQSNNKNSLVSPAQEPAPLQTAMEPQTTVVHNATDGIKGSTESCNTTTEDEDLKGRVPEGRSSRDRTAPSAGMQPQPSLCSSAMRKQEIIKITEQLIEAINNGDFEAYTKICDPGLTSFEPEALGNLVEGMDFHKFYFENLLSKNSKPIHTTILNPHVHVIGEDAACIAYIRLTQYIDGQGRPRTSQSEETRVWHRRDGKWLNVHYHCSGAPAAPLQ

NEK9 = NEK9 (Homo sapiens, UniProt Q8TD19); assay: Deep LiP-Quant (4h gradient), HeLa lysate
Sequence of NEK9 (Q8TD19 whole entry): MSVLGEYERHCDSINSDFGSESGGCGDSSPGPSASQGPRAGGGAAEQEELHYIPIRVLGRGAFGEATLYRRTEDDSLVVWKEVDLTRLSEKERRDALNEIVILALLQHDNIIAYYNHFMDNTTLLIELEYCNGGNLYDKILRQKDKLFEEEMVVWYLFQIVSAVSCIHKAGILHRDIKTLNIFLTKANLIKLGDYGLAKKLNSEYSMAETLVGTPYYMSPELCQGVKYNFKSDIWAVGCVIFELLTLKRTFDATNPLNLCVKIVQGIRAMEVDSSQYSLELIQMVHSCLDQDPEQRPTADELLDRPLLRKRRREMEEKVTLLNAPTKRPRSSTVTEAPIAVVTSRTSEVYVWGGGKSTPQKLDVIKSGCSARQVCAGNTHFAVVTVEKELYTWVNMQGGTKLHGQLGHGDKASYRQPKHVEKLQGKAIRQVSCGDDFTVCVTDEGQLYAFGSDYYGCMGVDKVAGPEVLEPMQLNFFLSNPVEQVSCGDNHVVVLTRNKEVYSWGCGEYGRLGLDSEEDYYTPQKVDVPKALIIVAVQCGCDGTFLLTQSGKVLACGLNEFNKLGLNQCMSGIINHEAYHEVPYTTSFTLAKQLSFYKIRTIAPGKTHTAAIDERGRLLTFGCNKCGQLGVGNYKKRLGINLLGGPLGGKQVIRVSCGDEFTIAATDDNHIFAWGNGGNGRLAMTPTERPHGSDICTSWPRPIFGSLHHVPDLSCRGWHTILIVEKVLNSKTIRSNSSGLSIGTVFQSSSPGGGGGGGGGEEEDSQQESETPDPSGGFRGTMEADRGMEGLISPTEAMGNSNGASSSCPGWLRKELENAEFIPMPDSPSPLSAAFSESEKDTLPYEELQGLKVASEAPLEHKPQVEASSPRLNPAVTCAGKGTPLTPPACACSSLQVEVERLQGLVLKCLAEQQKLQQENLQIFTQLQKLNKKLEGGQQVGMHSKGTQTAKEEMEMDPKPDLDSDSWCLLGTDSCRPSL

MAPK2K1 (MAP2K1) = MAPK2K1 (MAP2K1) (Homo sapiens, UniProt Q02750); assay: LiP-Quant, HeLa lysate; assay type: binding
Sequence of MAPK2K1 (MAP2K1) (Q02750 whole entry): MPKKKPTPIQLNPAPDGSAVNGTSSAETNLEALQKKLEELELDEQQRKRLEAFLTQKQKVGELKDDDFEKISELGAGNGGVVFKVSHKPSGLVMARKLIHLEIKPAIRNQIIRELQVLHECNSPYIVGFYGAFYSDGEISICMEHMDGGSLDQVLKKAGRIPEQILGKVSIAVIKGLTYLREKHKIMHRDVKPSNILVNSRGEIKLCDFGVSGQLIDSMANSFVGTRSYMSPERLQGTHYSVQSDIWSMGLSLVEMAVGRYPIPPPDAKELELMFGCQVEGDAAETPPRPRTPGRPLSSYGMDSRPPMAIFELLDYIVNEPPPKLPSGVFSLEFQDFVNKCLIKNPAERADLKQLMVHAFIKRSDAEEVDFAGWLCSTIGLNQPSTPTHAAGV

[5] = test system: KS6A2_HUMAN (Ribosomal protein S6 kinase alpha-2)
[6] = molecular target: KS6A3_HUMAN (Ribosomal protein S6 kinase alpha-3) (Homo sapiens, UniProt P51812); assay: LiP-Quant, HeLa lysate; assay type: binding
Sequence of KS6A3_HUMAN (Ribosomal protein S6 kinase alpha-3) (P51812 whole entry): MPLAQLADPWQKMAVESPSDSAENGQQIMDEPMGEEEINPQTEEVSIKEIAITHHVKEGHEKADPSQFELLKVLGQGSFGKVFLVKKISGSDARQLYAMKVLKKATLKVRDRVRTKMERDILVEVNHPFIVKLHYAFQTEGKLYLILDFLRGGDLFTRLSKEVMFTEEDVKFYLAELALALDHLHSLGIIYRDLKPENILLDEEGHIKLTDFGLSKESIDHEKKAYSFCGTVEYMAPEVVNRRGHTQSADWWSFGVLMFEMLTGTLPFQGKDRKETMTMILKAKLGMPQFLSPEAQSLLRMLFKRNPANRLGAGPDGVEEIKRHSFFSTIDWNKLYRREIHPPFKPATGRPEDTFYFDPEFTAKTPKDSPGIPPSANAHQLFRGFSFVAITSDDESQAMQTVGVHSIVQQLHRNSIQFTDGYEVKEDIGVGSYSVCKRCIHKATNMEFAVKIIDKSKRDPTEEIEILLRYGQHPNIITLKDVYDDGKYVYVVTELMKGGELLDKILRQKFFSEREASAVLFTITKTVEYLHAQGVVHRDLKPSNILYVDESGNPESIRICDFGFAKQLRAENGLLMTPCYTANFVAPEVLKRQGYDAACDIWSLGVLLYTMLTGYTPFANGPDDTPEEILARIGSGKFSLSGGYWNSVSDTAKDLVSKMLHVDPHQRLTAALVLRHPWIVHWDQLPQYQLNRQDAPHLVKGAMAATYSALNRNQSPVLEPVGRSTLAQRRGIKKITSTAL

RPS6KA3 = RPS6KA3 (Homo sapiens, UniProt P51812); assay: Deep LiP-Quant (4h gradient), HeLa lysate; assay type: binding
Sequence of RPS6KA3 (P51812 whole entry): as above

[7] = molecular target: CAMK2G (Calcium/calmodulin-dependent protein kinase type II subunit gamma, KCC2G_HUMAN) (Homo sapiens, UniProt Q13555); assay: LiP-Quant, HeLa lysate; assay type: binding; conditions: peptide NLINQMLTINPAK
Sequence of CAMK2G (Calcium/calmodulin-dependent protein kinase type II subunit gamma, KCC2G_HUMAN) (Q13555 whole entry): as the sequence (Q13555 whole entry) above

[8] = molecular target: SRPK1_HUMAN (SRSF protein kinase 1) (Homo sapiens, UniProt Q96SB4); assay: LiP-Quant, HeLa lysate; assay type: binding
Sequence of SRPK1_HUMAN (SRSF protein kinase 1) (Q96SB4 whole entry): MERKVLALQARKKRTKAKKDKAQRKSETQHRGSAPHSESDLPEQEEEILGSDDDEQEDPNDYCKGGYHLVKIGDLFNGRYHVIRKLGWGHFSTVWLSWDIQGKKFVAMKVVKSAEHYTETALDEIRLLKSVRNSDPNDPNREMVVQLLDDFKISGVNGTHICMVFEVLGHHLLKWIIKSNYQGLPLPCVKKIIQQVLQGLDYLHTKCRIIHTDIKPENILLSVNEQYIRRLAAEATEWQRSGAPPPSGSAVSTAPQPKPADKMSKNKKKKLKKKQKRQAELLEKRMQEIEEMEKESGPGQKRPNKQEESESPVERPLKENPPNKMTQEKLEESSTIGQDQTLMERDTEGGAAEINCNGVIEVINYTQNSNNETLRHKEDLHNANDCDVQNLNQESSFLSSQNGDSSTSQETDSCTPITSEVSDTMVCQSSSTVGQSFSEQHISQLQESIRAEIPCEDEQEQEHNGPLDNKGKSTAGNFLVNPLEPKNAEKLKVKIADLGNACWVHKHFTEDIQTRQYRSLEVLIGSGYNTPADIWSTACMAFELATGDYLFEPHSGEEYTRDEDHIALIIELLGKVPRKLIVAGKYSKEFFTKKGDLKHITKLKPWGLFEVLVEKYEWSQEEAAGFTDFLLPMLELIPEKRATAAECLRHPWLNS

EIF2AK2 = EIF2AK2 (Homo sapiens, UniProt P19525); assay: Deep LiP-Quant (4h gradient), HeLa lysate; assay type: binding
Sequence of EIF2AK2 (P19525 whole entry): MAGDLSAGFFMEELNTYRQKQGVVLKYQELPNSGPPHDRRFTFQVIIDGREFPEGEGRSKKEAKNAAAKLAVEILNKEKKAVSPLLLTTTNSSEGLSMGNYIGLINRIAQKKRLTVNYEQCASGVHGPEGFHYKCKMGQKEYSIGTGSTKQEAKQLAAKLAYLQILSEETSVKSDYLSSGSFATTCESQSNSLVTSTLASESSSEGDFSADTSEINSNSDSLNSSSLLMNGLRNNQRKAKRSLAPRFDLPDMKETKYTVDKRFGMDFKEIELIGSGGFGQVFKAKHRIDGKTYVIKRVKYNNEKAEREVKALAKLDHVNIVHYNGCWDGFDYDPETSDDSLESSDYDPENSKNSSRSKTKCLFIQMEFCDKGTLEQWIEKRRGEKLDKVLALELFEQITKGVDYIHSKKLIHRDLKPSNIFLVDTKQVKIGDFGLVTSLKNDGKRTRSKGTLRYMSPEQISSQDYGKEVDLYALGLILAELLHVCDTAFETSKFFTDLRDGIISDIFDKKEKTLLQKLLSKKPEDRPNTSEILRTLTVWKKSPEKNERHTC

[9] = peptide LPSGVFSL, MAP2K1 (Q02750)
[10] = protein level, experiment LiP-Quant
[11] = peptide VLGQGSFGK, RPS6KA3 (P51812)
[12] = peptide STAGNFLVNPLEPK, SRPK1 (Q96SB4)

In the case of `CCC(=O)Nc1cc(-c2c(-c3ccc(F)cc3)nn3c2CCC3)ccn1` [BAYE-004], the “% Inhibition of CK-1” value ([1]; concentration 1,00E-04 (unit not given)) is reported as 92% and 90%, the “% Inhibition of CK-1” value ([1]; concentration 1,00E-05 (unit not given)) is reported as 98% and 105% and the “% Inhibition of CK-1” value ([1]; concentration 1,00E-06 (unit not given)) is reported as 99% and 101%. The “% Inhibition of CK-1” value ([1]; concentration 1,00E-07 (unit not given)) was 84% and 91%, the “% Inhibition of CK-1” value ([1]; concentration 1,00E-08 (unit not given)) was 53% and 50% and the “% Inhibition of CK-1” value ([1]; concentration 1,00E-09 (unit not given)) was 9%. For the same compound, the IC50 ([1]; read-out: IC50 (% Inhibition of CK-1)) was 12.5 nM, the EC50 [2] was 1600 nM and the “thermal stability upon treatment” value (His-tagged Bcin06g02870) was “thermally stabilized”. For the same compound, the inhibition at 0.40745 µM (Botrytis cinerea; Botrytis cinerea, 72 h, read-out: Inhibition of growth, Dose 0.40745 uM) was 76.8%, the inhibition at 1.22234 µM (Botrytis cinerea; Botrytis cinerea, 72 h, read-out: Inhibition of growth, Dose 1.22234 uM) was 82.5% and the Inhibition of growth (Botrytis cinerea; Dose 0.40745 uM) was 76.882 and 79.9248. For the same compound, the Inhibition of growth (Botrytis cinerea; Dose 1.22234 uM) was 82.7279 and 79.8427, the “EC50 lower than EC50 of the rest of the LiP-Quant peptides above the 1.5 threshold” value [3] was “approximately 1000 fold” and the EC50 ([3]; two peptides, LiP-Quant rank #6 and #7) was 6 nM and 5 nM.

For `CN[C@@H]1C[C@H]2O[C@@](C)([C@@H]1OC)n1c3ccccc3c3c4c(c5c6ccccc6n2c5c31)C(=O)NC4` [Staurosporine], the LIPscore [4] was 2.655, the LiP Score (NEK9; peptide GAFGEATLYR) was 4.511 and the LIPRank (NEK9; protein level) was 4. The DRC (MAPK2K1 (MAP2K1); [9]) was 0.9366, the LIPRank (MAPK2K1 (MAP2K1); [9]) was 2 and the LIPscore (MAPK2K1 (MAP2K1); peptide VSIAVIK (selumetinib sheet) or best peptide of the protein (Supp Data 7)) was 2.822. For the same compound, the LIPRank (MAPK2K1 (MAP2K1); peptide VSIAVIK (selumetinib sheet) or protein level (Supp Data 7)) was 2, the LIPscore (MAPK2K1 (MAP2K1); staurosporine sheet, peptide LPSGVFSL, LIPRank 2) was 2.822 and the LIPscore [5, 10] was 2.777. The LIPscore ([5]; staurosporine sheet, peptide […], LIPRank 3) was 2.777, the DRC [6, 11] was 0.9262 and the LIPRank [6, 11] was 4. The LIPRank [6, 10] was 4, the LIPscore [6, 10] was 2.665 and the LIPscore ([6]; staurosporine sheet, peptide VLGQGSFGK, LIPRank 4) was 2.665. For the same compound, the LiP Score (RPS6KA3; peptide ADPSQFELLK) was 4.635, the LIPRank (RPS6KA3; protein level) was 3 and the DRC [7] was 0.9333. For the same compound, the LIPRank [7] was 5, the LIPscore [7] was 2.655 and the DRC [8, 12] was 0.9525. For the same compound, the LIPRank [8, 12] was 1, the LIPRank [8, 10] was 1 and the LIPscore [8, 10] was 3.113. The LIPscore ([8]; staurosporine sheet, peptide […], LIPRank 1) was 3.113, the LiP Score (EIF2AK2; peptide IGDFGLVTSLK) was 4.708 and the LIPRank (EIF2AK2; protein level) was 2.
